Experiment [1] concerns caspase-8. Kind of experiment: Fluorometric caspase-8 activity assay in CEM cells. The format is cell-based, human. To be noted: cisplatin 2 µg/ml alone, Fig. 2b. The protocol: • (a) Left: P5 an CEM cells were treated with cisplatin (1-5 µg/ml) in the absence or presence of DEX (1 µM) as indicated. Proteins were extracted and expression of CD95-L, TRAIL or TNF-α was detected by Western blot analysis. The size of the proteins in kDa is indicated. Right: HeLa and P5 were treated with CD95 agonistic antibody αAPO-1 (CD95, 1 µg/ml), recombinant TRAIL protein (TRAIL, 100 ng/ml) or recombinant TNF-α protein (TNF-α, 100 ng/ml) in the absence (white bars) or presence (black bars) of DEX (1 µM). 24 h later the percentage of apoptosis was determined by annexin-staining and FACS-analysis in untreated (CO) and stimulated cells at the time points indicated. • (b) P693 and CEM cells were treated with cisplatin (2 µg/ml) in the absence or presence of DEX as indicated. 24 and 48 h following treatment cells were lysed and caspase-8 activity was determined by a fluorescent caspase-8 assay and spectroscopy. • (c) P5 cells were stable transfected with empty vector (pcDNA3), or pcDNA3 vector encoding dominant negative FADD protein (FADD-DN). Proteins were extracted from both cell lines and expression of wildtype (WT) and FADD-DN (DN) was detected by Western blot. Left: Stable transfected P5 cells were treated with αAPO-1 (1 µg/ml) and 24 h later apoptosis was determined by staining with annexin/propidium iodide and flow-cytometry. […]

In experiment [2] the test system is P5 and HeLa cervix carcinoma cells. The experiment is described as follows: Apoptosis by annexin-V/FITC staining and flow cytometry in cervix carcinoma cells. The format is cell-based, human. The settings on record: cisplatin 2 µg/ml, absence of DEX, 24-72 h; Fig. 1b. The method, then: • (a) Human epidermoid lung cancer cells (P693) were injected into nude mice. At a tumour volume of 500 mm^3 weekly treatment with cisplatin (5mg/kg/week) was started. Cisplatin was injected intraperitoneally in the absence (CIS) or presence (DEX/CIS) of DEX which was added to the drinking water (0.28 mg/L) for the duration of the experiment. […] As controls, tumor growth of xenografts from mice which received neither cisplatin nor DEX (CO) or from mice which received DEX only (DEX) was determined. The tumour volume in each animal was measured at weekly intervals for a period of 5 weeks. Data are presented as the means +/- SD of 6 to 8 animals. • (b) The human cervical carcinoma cell lines HeLa and P5 were γ-irradiated (10 Gy) or treated with cisplatin (2 µg/ml) in the absence (white bars) or presence (black bars) of DEX (1 µM). The percentage of apoptosis was measured in untreated (CO) and stimulated cells by annexin-staining and FACS-analysis at the time points indicated. (c) P5, P693 and human leukemic T cells (CEM) cells were treated with cisplatin (2 µg/ml) in the absence or presence of DEX as indicated. 24 and 48 h following treatment cells were lysed and caspase-3 activity was determined by a fluorescent caspase-3 assay and spectroscopy.
In general terms: Flow cytometry measures light scatter and fluorescence of single cells or particles in a stream.

Regarding `N.N.[Cl][Pt][Cl]` [cisplatin], the “activity of caspase-8” value in experiment [1] was “responded earlier at 24 h with increased activity at 48 h”. For the same compound, the apoptosis result in experiment [2] was “detectable 24 h following treatment and increased during the next 48 and 72 h”.

(Values after patent EP1283052A1, “Pharmaceutical composition containing caspase-8 and /or caspase-9 useful for overcoming glucocorticoid- and cancer therapy-induced apoptosis of tumours” (Deutsches Krebsforschungszentrum Stiftung des öffentlichen …, priority 2001, dated 2003).)
